According to US6815456B2, “Heterocyclyloxy-, -thioxy- and -aminobenzazole derivatives as 5-hydroxytryptamine-6 ligands” (Wyeth, priority 2001, dated 2004):
Structures can show the parent of a compound that is named as a salt.

Tests used:
[1] = molecular target: T1, human cloned 5-HT6 receptors (Homo sapiens, UniProt P50406); test: 5-HT6 binding affinity, [3H]-LSD displacement on membranes of Hela cells expressing human cloned 5-HT6 receptors; settings: [3H]-LSD 3.0 nM, Hela cell membranes, 120 min at room temperature
T1 construct: expressed in transfected cells; host or cells: HeLa cells
Description: The affinity of test compounds for the serotonin 5-HT6 receptor is evaluated in the following manner. Cultured Hela cells expressing human cloned 5-HT6 receptors are harvested and centrifuged at low speed (1,000×g) for 10.0 min to remove the culture media. The harvested cells are suspended in half volume of fresh physiological phosphate buffered saline solution and recentrifuged at the same speed. This operation is repeated. The collected cells are then homogenized in ten volumes of 50 mM Tris.HCl (pH 7.4) and 0.5 mM EDTA. The homogenate is centrifuged at 40,000×g for 30.0 min and the precipitate is collected. The obtained pellet is resuspended in 10 volumes of Tris.HCl buffer and recentrifuged at the same speed. The final pellet is suspended in a small volume of Tris.HCl buffer and the tissue protein content is determined in aliquots of 10-25 μl volumes. Bovine Serum Albumin is used as the standard in the protein determination according to the method described in Lowry et al., J. Biol. Chem., 193:265 (1951). The volume of the suspended cell membranes is adjusted to give a tissue protein concentration of 1.0 mg/ml of suspension. The prepared membrane suspension (10 times concentrated) is aliquoted in 1.0 ml volumes and stored at −70° C. until used in subsequent binding experiments.
Binding experiments are performed in a 96 well microtiter plate format, in a total volume of 200 μl. […] The test compounds are added in 20.0 μl volume.
The reaction is allowed to proceed in the dark for 120 min at room temperature, at which time, the bound ligand-receptor complex is filtered off on a 96 well unifilter with a Packard Filtermate® 196 Harvester. The bound complex caught on the filter disk is allowed to air dry and the radioactivity is measured in a Packard TopCount® equipped with six photomultiplier detectors, after the addition of 40.0 μl Microscint®-20 scintillant to each shallow well. The unifilter plate is heat-sealed and counted in a PackardTopCount® with a tritium efficiency of 31.0%.
Binding in the presence of varying concentrations of test compound is expressed as a percentage of specific binding in the absence of test compound. The results are plotted as log % bound versus log concentration of test compound. […] A linear regression line of data points is plotted, from which the IC50 value is determined and the Ki value is determined based upon the following equation: […]
where L is the concentration of the radioactive ligand used and KD is the dissociation constant of the ligand for the receptor, both expressed in nM.

T1 sequence (P50406 whole entry): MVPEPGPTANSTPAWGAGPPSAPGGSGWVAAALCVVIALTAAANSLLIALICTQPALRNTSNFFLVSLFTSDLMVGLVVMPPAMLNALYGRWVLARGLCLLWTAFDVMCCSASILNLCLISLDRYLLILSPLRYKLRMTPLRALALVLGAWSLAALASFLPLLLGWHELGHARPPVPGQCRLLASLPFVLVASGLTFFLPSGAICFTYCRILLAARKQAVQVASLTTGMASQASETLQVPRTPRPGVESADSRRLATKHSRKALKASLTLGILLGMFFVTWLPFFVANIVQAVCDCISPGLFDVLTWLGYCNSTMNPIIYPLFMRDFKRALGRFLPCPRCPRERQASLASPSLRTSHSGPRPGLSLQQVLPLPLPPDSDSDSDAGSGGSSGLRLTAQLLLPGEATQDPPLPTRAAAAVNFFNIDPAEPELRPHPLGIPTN

Row | Ki [1] [nM] | melting point | SMILES
1 | 5 |  | Nc1ccc(S(=O)(=O)n2ccc3c(OC4CCNC4)cccc32)cc1 (stereo not shown) [Example 5, 4-{[4-(3-pyrrolidinyloxy)-1H-indol-1-yl]sulfonyl}aniline]
2 | 9 |  | O=S(=O)(c1ccc(Cl)s1)n1ncc2c(OC3CCNC3)cccc21 (stereo not shown) [Example 19, 1-[(5-Chlorothien-2-yl)sulfonyl]-4-(3-pyrrolidinyloxy)-1H-indazole]
3 | 8 |  | O=S(=O)(c1ccccc1)n1ccc2c(OC3CCNC3)cccc21 (stereo not shown) [Example 3, 1-(Phenylsulfonyl)-4-(3-pyrrolidinyloxy)-1H-indole Hydrochloride]
4 | 13 |  | O=S(=O)(c1cccc2ccccc12)n1ccc2c(OC3CCNC3)cccc21 (stereo not shown) [Example 6, 1-(1-naphthylsulfonyl)-4-(3-pyrrolidinyloxy)-1H-indole]
5 | 25 |  | O=S(=O)(c1ccccc1F)n1ncc2c(OC3CCNC3)cccc21 (stereo not shown) [Example 17, 1-[(2-fluorophenyl)sulfonyl]-4-(3-pyrrolidinyloxy)-1H-indazole]
6 |  | 200 to 201 °C | O=S(=O)(c1cccc2ccccc12)n1ncc2c(OC3CCNC3)cccc21 (stereo not shown) (as salt: trifluoroacetic acid salt) [Example 15, 1-(1-naphthylsulfonyl)-4-(3-pyrrolidinyloxy)-1H-indazole]
7 | 3 |  | Nc1ccc(S(=O)(=O)n2ccc3c(OC4CCNCC4)cccc32)cc1 [Example 8, 4-{[4-(piperidin-4-yloxy)-1H-indol-1-yl]sulfonyl}aniline]
8 |  | 117 to 119 °C | Nc1ccc(S(=O)(=O)n2ccc3c(OC4CCNCC4)cccc32)cc1 (as salt: hydrochloride) [Example 8, 4-{[4-(piperidin-4-yloxy)-1H-indol-1-yl]sulfonyl}aniline]
9 |  | 100 °C (dec.) | Cc1nn(C)c(Cl)c1S(=O)(=O)n1ccc2c(OC3CCNC3)cccc21 (stereo not shown) (as salt: hydrochloride) [Example 7, 1-[(5-Chloro-1,3-dimethyl-1H-pyrazol-4-yl)sulfonyl]-4-(3-pyrrolidinyloxy)-1H-indole]
10 |  | 162 to 163 °C | O=S(=O)(c1ccccc1F)n1ncc2c(OC3CCNC3)cccc21 (stereo not shown) (as salt: trifluoroacetic acid salt) [Example 17, 1-[(2-fluorophenyl)sulfonyl]-4-(3-pyrrolidinyloxy)-1H-indazole]
11 | 25 |  | O=S(=O)(c1cccs1)n1ccc2c(OC3CCNC3)cccc21 (stereo not shown) [Example 4, 4-(3-pyrrolidinyloxy)1-(thien-2-ylsulfonyl)-1H-indole]
12 | 3 |  | O=S(=O)(c1cccc2ccccc12)n1ncc2c(OC3CCNC3)cccc21 (stereo not shown) [Example 15, 1-(1-naphthylsulfonyl)-4-(3-pyrrolidinyloxy)-1H-indazole]
13 | 22 |  | O=S(=O)(c1cccc2cccnc12)n1ncc2c(OC3CCNC3)cccc21 (stereo not shown) [Example 22, 8-{[4-(3-pyrrolidinyloxy)-1H-indazol-1-yl]sulfonyl}quinoline]
14 | 12 |  | CC(=O)Nc1ccc(S(=O)(=O)n2ncc3c(OC4CCNC4)cccc32)cc1Cl (stereo not shown) [Example 20, N-(2-Chloro-4-{[4-(3-pyrrolidinyloxy)-1H-indazol-1-yl]sulfonyl}phenyl)acetamide]
15 | 19 |  | O=S(=O)(c1ccccc1Cl)n1ncc2c(OC3CCNC3)cccc21 (stereo not shown) [Example 16, 1-[(2-Chlorophenyl)sulfonyl]-4-(3-pyrrolidinyloxy)-1H-indazole]
16 |  | 68 to 72 °C | CC(=O)Nc1ccc(S(=O)(=O)n2ncc3c(OC4CCNC4)cccc32)cc1Cl (stereo not shown) (as salt: trifluoroacetic acid salt) [Example 20, N-(2-Chloro-4-{[4-(3-pyrrolidinyloxy)-1H-indazol-1-yl]sulfonyl}phenyl)acetamide]
17 |  | 102 to 103 °C | O=S(=O)(c1ccc(Cl)s1)n1ncc2c(OC3CCNC3)cccc21 (stereo not shown) (as salt: trifluoroacetic acid salt) [Example 19, 1-[(5-Chlorothien-2-yl)sulfonyl]-4-(3-pyrrolidinyloxy)-1H-indazole]
18 |  | 161 to 163 °C | O=S(=O)(c1ccccc1Cl)n1ncc2c(OC3CCNC3)cccc21 (stereo not shown) (as salt: trifluoroacetic acid salt) [Example 16, 1-[(2-Chlorophenyl)sulfonyl]-4-(3-pyrrolidinyloxy)-1H-indazole]
19 |  | 179 °C (dec.) | O=S(=O)(c1cccc2ccccc12)n1ccc2c(OC3CCNC3)cccc21 (stereo not shown) (as salt: hydrochloride) [Example 6, 1-(1-naphthylsulfonyl)-4-(3-pyrrolidinyloxy)-1H-indole]
20 | 11 |  | Nc1ccc(S(=O)(=O)n2ccc3c(OC4CCCNC4)cccc32)cc1 (stereo not shown) [Example 9, 4-{[4-(piperidin-3-yloxy)-1H-indol-1-yl]sulfonyl}aniline]
21 |  | 79 °C | O=S(=O)(c1cccc2cccnc12)n1ncc2c(OC3CCNC3)cccc21 (stereo not shown) (as salt: trifluoroacetic acid salt) [Example 22, 8-{[4-(3-pyrrolidinyloxy)-1H-indazol-1-yl]sulfonyl}quinoline]
22 | 19 |  | O=S(=O)(c1ccccc1)n1ncc2c(OC3CCNC3)cccc21 (stereo not shown) [Example 14, 1-(Phenylsulfonyl)-4-(pyrrolidin-3-yloxy)-1H-indazole, trifluoroacetic acid salt]
23 |  | 160 °C (dec.) | Nc1ccc(S(=O)(=O)n2ccc3c(OC4CCCNC4)cccc32)cc1 (stereo not shown) (as salt: hydrochloride) [Example 9, 4-{[4-(piperidin-3-yloxy)-1H-indol-1-yl]sulfonyl}aniline]

Row | SMILES | Ki [1] [nM] | melting point
24 | CC(=O)Nc1ccc(S(=O)(=O)n2ncc3c(OC4CCNC4)cccc32)cc1 (stereo not shown) [Example 21] | 124 | 
25 | COc1ccc(S(=O)(=O)n2ncc3c(OC4CCNC4)cccc32)cc1OC (stereo not shown) [Example 18] | 75 | 
